Consider two compounds from article PMC11990924, “Inhibition of Tyrosinase and Melanogenesis by Carboxylic Acids: Mechanistic Insights and Safety Evaluation” (Molecules, 2025).

SMILES strings stand for the structures. Read-outs that look alike come from different tables or passages of the source.

One series addresses mushroom tyrosinase (Agaricus bisporus, UniProt C7FF04). As to the kind of experiment: Inhibition of mushroom tyrosinase activity (L-DOPA, OD475). The class given is biochemical. The conditions noted are these: read-out: tyrosinase inhibition rate. As to the method: L-DOPA solution (5 mM) and tyrosinase (400 U/mL) (Sigma-Aldrich, St. Louis, MO, USA) were prepared in PBS buffer (pH 7.4) (Qingdao Hope Bio-Technology Co., Ltd., Qingdao, China). A reaction mixture was prepared by combining 240 μL of carboxylic acid at various concentrations, 360 μL of L-DOPA solution, and 120 μL of tyrosinase. […] Deionized water was used as the control.

Series [1] has as its target T1, tyrosinase (Agaricus bisporus, UniProt C7FF04).
T1 construct: purchased Sigma-Aldrich
As to the kind of experiment: Fluorescence spectra analysis of tyrosinase. The class given is binding, mushroom. The conditions noted are these: 6 mM; excitation 280 nm. On the procedure: Carboxylic acid solutions at various concentrations were mixed with PBS buffer and tyrosinase (final concentration of 60 U/mL) and then transferred to a black 96-well plate. Fluorescence analysis was conducted using a microplate reader (Infinite 200Pro, Tecan).

Series [2] deals with T1, tyrosinase. As to the kind of experiment: Kinetic analysis of tyrosinase (Lineweaver–Burk). The class given is biochemical, mushroom. The conditions noted are these: for Ki: GraphPad Prism, mixed-model or competitive model, read-out: inhibition constant (Ki); for inhibition mechanism: Lineweaver–Burk double-reciprocal plots; for inhibition constant (KIS) for enzyme–substrate complex: mixed-type inhibitors. On the procedure:
L-DOPA solutions at various concentrations (0.5, 1, 2, and 4 mM) were prepared in PBS buffer (pH 7.4) and mixed with carboxylic acids at different concentrations and tyrosinase (final concentration of 60 U/mL). […] The reaction rates were calculated based on the OD values. To analyze the inhibition types of the four carboxylic acids on tyrosinase, double-reciprocal Lineweaver–Burk plots were constructed with 1/v (reaction rate) as the y-axis and 1/[S] (substrate concentration) as the x-axis. The maximum reaction velocity (Vmax) and Michaelis constant (Km) were determined using GraphPad Prism 10 (GraphPad Software, Massachusetts, USA).

The nature of series [3]: pH of carboxylic acid mixed with PBS buffer, without tyrosinase. The conditions noted are these: in PBS buffer, absence of tyrosinase. The class given is physicochemical.
Series [4] can be described thus: L-DOPA auto-oxidation analysis. The conditions noted are these: for IC50: 37 °C, 12 h, calculated using SPSS, read-out: IC50 for L-DOPA auto-oxidation inhibition. As to the method: A 5 mM L-DOPA solution was prepared in PBS buffer (pH 7.4). Subsequently, 240 μL of carboxylic acid solution, 360 μL of L-DOPA solution, and 120 μL of PBS buffer were sequentially mixed. The mixture was then incubated at 37 °C for 12 h. […] Deionized water was used as the control. The inhibition of L-DOPA auto-oxidation was calculated using the same method as the melanin content analysis.

A short description of series [5]: Cell viability of B16-F10 by MTT. The class given is cell-based. The conditions noted are these: mouse, B16-F10 cells, 6 mM. As to the method: B16-F10 cells were seeded in 96-well plates at a density of 1 × 10^5 cells/mL and cultured at 37 °C with 5% CO2 for 24 h. Subsequently, various concentrations of carboxylic acids were added, and the cells were further incubated for 24 h. Then, 6 μL of MTT (5 mg/mL) was added, and the cells were cultured for an additional 4 h. Afterward, 200 μL of DMSO was added to dissolve the formazan crystals by gently pipetting up and down. The absorbance at 570 nm (OD570) was measured using a microplate reader (Infinite 200Pro, Tecan), with deionized water serving as the control. The cell viability was calculated with Equation (2): (2) [(OD570 of sample)/OD570 of control]×100%

A further series concerns B16-F10 cells. As to the kind of experiment: Melanin content analysis of B16-F10 cells (α-MSH stimulated). The conditions noted are these: Mus musculus; 6 mM, B16-F10, α-MSH 1 μM, 48 h; read-out: melanin inhibition rate. The class given is cell-based. As to the method: A 900 μL cell suspension with an approximate density of 50% confluence was seeded into a 12-well plate and cultured for 24 h at 37 °C with 5% CO2. Subsequently, various concentrations of carboxylic acids were added, and the cells were further incubated for 1 h. Then, 1 μL of 1 mM α-melanocyte-stimulating hormone (α-MSH) solution was added to achieve a final concentration of 1 μM, and the cells were cultured for an additional 48 h at 37 °C with 5% CO2 to stimulate melanogenesis. Afterward, the cells were digested with trypsin, collected by centrifugation at 10,000 rpm for 5 min (Andreas Hettich GmbH & Co., KG, Tuttlingen, Germany), and the supernatant was discarded. Each tube was treated with 200 μL of 1 M NaOH solution and incubated in a water bath at 60 °C for 20 min. Following incubation, the samples were vortexed to ensure homogeneity, and 200 μL of each sample was transferred to a 96-well plate. The absorbance at 405 nm (OD405) was measured using a microplate reader (Infinite 200Pro, Tecan), and the data were recorded to calculate the melanin content, with deionized water serving as the control. The reduction in melanin content was calculated with Equation (3):(3) [(OD405 of control−OD405 of sample)/OD405 of control]×100%

The target in series [6] is tyrosinase from BioVision, Inc. (claimed to be of human origin). Set-up: method as in PMID 38909081. The conditions noted are these: cited from earlier work.
The subject of the next series is rabbits and mice. The conditions noted are these: in vivo; cited from earlier work.

T1 sequence (C7FF04 1-392 limits assumed): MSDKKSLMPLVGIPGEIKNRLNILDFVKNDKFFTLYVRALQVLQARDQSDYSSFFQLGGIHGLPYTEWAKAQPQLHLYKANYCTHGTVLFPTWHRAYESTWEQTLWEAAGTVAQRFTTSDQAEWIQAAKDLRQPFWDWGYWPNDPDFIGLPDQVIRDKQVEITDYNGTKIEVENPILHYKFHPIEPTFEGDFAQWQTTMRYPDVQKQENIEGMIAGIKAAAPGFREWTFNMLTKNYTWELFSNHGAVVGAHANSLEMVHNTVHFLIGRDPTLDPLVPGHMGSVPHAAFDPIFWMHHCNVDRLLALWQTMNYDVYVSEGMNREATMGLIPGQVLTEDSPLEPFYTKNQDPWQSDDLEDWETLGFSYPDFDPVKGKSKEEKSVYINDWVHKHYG
Sequence of mushroom tyrosinase (C7FF04 2-392): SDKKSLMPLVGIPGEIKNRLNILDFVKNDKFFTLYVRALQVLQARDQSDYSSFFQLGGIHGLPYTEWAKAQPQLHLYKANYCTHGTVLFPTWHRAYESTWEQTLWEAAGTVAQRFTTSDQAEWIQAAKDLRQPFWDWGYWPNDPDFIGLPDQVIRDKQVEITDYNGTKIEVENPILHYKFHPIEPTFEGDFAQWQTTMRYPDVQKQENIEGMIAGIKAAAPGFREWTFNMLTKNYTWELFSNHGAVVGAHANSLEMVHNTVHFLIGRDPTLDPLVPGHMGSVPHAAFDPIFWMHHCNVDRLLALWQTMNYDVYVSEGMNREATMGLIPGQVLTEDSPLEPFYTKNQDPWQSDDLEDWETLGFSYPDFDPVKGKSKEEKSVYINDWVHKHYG

By inhibition is commonly meant the drop in the measured response relative to a control, in per cent. Broadly, the Ki is a measure of affinity in units of concentration, obtained from inhibition or displacement. The IC50 is the concentration needed to halve the response being measured. As usually defined, the viability is a per cent measure of how many cells are alive, often set against a control. Turning to `O=C(O)C(O)Cc1ccccc1` (centres unmarked) [3-phenyllactic acid], the inhibition at 6000 µM on mushroom tyrosinase (6 mM) is over 80%. For the same compound, the “decrease of tyrosinase fluorescence intensity” value at tyrosinase [1] was determined as 29.3%. At tyrosinase [2], the Ki amounted to 1570 µM, the inhibition mechanism result is recorded as “mixed-type inhibition” and the “inhibition constant (KIS) for enzyme–substrate complex” value was determined as 8.526 mM. The pH entry in [3] (6 mM) is reported as “around 6”. For the same compound, in series [4] (1.5 mM), the “L-DOPA auto-oxidation inhibition rate” value is recorded as “exceeding 80%”. Moreover, the IC50 in series [4] is 630 µM. In series [5], the viability at 24 h, 6 mM is over 90%. For the same compound, in the series on B16-F10 cells, the inhibition at 6000 µM worked out at 27.2%.
Take `O=C(O)CC(O)C(=O)O` (centres unmarked) [malic acid]: the inhibition at 6000 µM is over 80% on mushroom tyrosinase and 33.6% with B16-F10 cells. Moreover, the “decrease of tyrosinase fluorescence intensity” value at tyrosinase [1] worked out at 29.0%. The Ki on tyrosinase [2] stood at 606 µM. Also, the inhibition mechanism result against tyrosinase [2] is recorded as “mixed-type inhibition”. The “inhibition constant (KIS) for enzyme–substrate complex” value on tyrosinase [2] was 3.066 mM. The pH in series [3] (3 mM) came to 4.6; in series [3] (6 mM), 3.5. For the same compound, the “L-DOPA auto-oxidation inhibition rate” value in series [4] (0.75 mM) was “exceeding 80%”. The figures for the IC50 in series [4] and in [6] were 380 µM and 87.5 µM, respectively. Also, the viability at 24 h, 6 mM in series [5] is over 90%. Further, in the series on rabbits and mice, the “oral LD50” value is 1600 to 3200 mg/kg.
